Measurements published in patent publication US7910593B2, “Water-soluble prodrugs” (Chugai Seiyaku Kabushiki Kaisha, priority 2004, dated 2011).

What was measured:
[1] = Test Example 5: conversion of compound 2A into activated form in dog sera; format: in vitro ADME; conditions: for compound 2A (measured values, %): Test Example 5, dog sera, 50 μM, 37° C.
Protocol: (§1) The percentages of compound 2A produced in Example 2 being converted into an activated form in sera of humans, rats, mice, monkeys, and dogs were determined. The activated form is in a rapid equilibrium between the lactone form and the carboxylate form, which were quantified separately.
(§2) Compound 2A was incubated at 37° C. at a concentration of 50 μM in sera of humans, mice, rats, monkeys, and dogs. Incubation was terminated at a given time (0, 30, 60, 120, and 360 minutes), and the samples were analyzed by HPLC after deproteinization treatments.
(§3) Conditions for the HPLC analysis are as follows: • HPLC conditions • Column: Develosil C30-UG-3, 3 μm, 35×4.6 mm I.D • Column Temperature: constant temperature at approximately 25° C. • Mobile phase: A: 10 mM phosphate buffer (pH4.7) • B: acetonitrile • /B (min): 90/10(0)→90/10(0.4)→40/60(6)→2/98(8)→90/10(9)→90/10(15) • Flow rate: 1.0 mL/min • Detection: photodiode array detector, detection wavelength 350 nm • Amount injected: 30 μL
(§4) Generally, camptothecins in solution are in a rapid equilibrium between a structure in which the carbonyl at position 3 forms a 6-membered cyclic ester with the oxygen at position 2, and its open-ring structure. The lactone form refers to the former condition and the carboxylate form refers to the latter condition.

[2] = Test Example 1: conversion of compound 2A into activated form in mouse serum; format: in vitro ADME; conditions: for compound 2A (measured values, %): mouse serum, 50 μM, 37° C.
Protocol: (§5) The percentages of compound 2A produced in Example 2 being converted into an activated form in sera of humans, mice, monkeys, and dogs were determined. The activated form is in a rapid equilibrium between the lactone form and the carboxylate form, which were quantified separately.
(§6) Compound 2A was incubated at 37° C. at a concentration of 50 μM in sera of humans, mice, monkeys, and dogs. Incubation was terminated at a given time (0, 30, 60, 120, and 360 minutes), and the samples were analyzed by HPLC after deproteinization treatments.
(§7) Conditions for the HPLC analysis are as follows: • HPLC conditions • Column: Develosil C30-UG-3, 3 μm, 50×4.6 mm I.D • Column Temperature: constant temperature at approximately 25° C. • Mobile phase: A: 10 mM phosphate buffer (pH4.7) • B: acetonitrile • /B (min): 90/10(0)→90/10(0.4)→40/60(6)→2/98(8)→90/10(9)→90/10(15)
(§8) Flow rate: 1.0 mL/min • Detection: photodiode array detector, detection wavelength 350 nm • Amount injected: 30 μL
as §4

[3] = test system: human colon cancer cell line HCT116; assay: Test Example 4: antitumor effect in HCT116 tumor-bearing nude mice; format: in vivo, BALB/c nude mice; conditions: once per week for three weeks
Protocol: Antitumor effects were determined for representative examples of the group of compounds of the present invention. Tumor-bearing mice were generated by subcutaneous transplantation of human colon cancer cell line HCT116 obtained from American Type Culture Collection (Virginia, USA) into the right flank of BALB/c nude mice purchased from Charles River Japan, and used for determination of antitumor effects.
After a one-week quarantine period, the purchased nude mice were subjected to subcutaneous transplantation of 5×10^6 HCT116 cells at their right flank. Mice with a tumor size reaching 200 mm^3 or so were subjected to the experiment.
The compounds were dissolved in 1 mM citric bufferes saline, pH 4, and administered intravenously. The administration was carried out once per week for three weeks, for a total of three administrations. The antitumor effect was determined as tumor growth inhibition (TGI) using the following equation. Tumor growth inhibition (TGI) (%)={(1−mean tumor volume change in the drug-treated group/mean tumor volume change in the control group)×100} The results are shown in Table 6.

[4] = Test Example 5: conversion of compound 2A into activated form in monkey sera; format: in vitro ADME; conditions: for compound 2A (measured values, %): Test Example 5, monkey sera, 50 μM, 37° C.
Protocol: as §1, §2, §3, §4

[5] = Test Example 1: conversion of compound 2A into activated form in dog serum; format: in vitro ADME; conditions: for compound 2A (measured values, %): dog serum, 50 μM, 37° C.
Protocol: as §5, §6, §7, §8, §4

[6] = Test Example 1: conversion of compound 2A into activated form in human serum; format: in vitro ADME; conditions: for compound 2A (measured values, %): human serum, 50 μM, 37° C.
Protocol: as §5, §6, §7, §8, §4

Compound: CCCCCN1C=Nc2cccc3nc4c(c1c23)Cn1c-4cc2c(c1=O)COC(=O)[C@@]2(CC)OC(=O)CN(C)C(=O)CN.Cl [Compound 2A, (9S)-9-Ethyl-9-(glycyl-sarcosyloxy)-1-pentyl-1H,12H-pyrano[3″,4″:6′,7′]indolizino[1′,2′:6,5]pyrido[4,3,2-de]quinazoline-10,13(9H,15H)-dione hydrochloride]
- compound 2A (measured values, %) ([1]; incubation 0 minutes): 0%
- compound 2A (measured values, %) ([1]; incubation 30 minutes): 0%
- compound 2A (measured values, %) ([1]; incubation 60 minutes): 0%
- compound 2A (measured values, %) ([1]; incubation 120 minutes): 0%
- compound 2A (measured values, %) ([1]; incubation 360 minutes): 0%
- conversion to the lactone form (in words) ([1]; dog sera, Test Example 5): quickly converted to the lactone form
- conversion to the lactone form (in words) ([2]; mouse sera, Test Example 1): quickly converted to the lactone form
- compound 2A (measured values, %) ([2]; incubation 0 minutes): 0%
- compound 2A (measured values, %) ([2]; incubation 30 minutes): 0%
- compound 2A (measured values, %) ([2]; incubation 60 minutes): 0%
- compound 2A (measured values, %) ([2]; incubation 120 minutes): 0%
- compound 2A (measured values, %) ([2]; incubation 360 minutes): 0%
- TGI (%) on Day 21 ([3]; 0.9 mg/kg intravenously): 45%
- TGI (%) on Day 21 ([3]; 1.9 mg/kg intravenously): 52%
- TGI (%) on Day 21 ([3]; 3.75 mg/kg intravenously): 72%
- TGI (%) on Day 21 ([3]; 7.5 mg/kg intravenously): 74%
- TGI (%) on Day 21 ([3]; 15 mg/kg intravenously): 85%
- TGI (%) on Day 21 ([3]; 30 mg/kg intravenously): 97%
- TGI (%) on Day 21 ([3]; 60 mg/kg intravenously): 110%
- compound 2A (measured values, %) ([4]; incubation 0 minutes): 0%
- compound 2A (measured values, %) ([4]; incubation 30 minutes): 0%
- compound 2A (measured values, %) ([4]; incubation 60 minutes): 0%
- compound 2A (measured values, %) ([4]; incubation 120 minutes): 0%
- compound 2A (measured values, %) ([4]; incubation 360 minutes): 0%
- conversion to the lactone form (in words) ([4]; monkey sera, Test Example 5): quickly converted to the lactone form
- conversion to the lactone form (in words) ([5]; dog sera, Test Example 1): quickly converted to the lactone form
- compound 2A (measured values, %) ([5]; incubation 0 minutes): 0%
- compound 2A (measured values, %) ([5]; incubation 30 minutes): 0%
- compound 2A (measured values, %) ([5]; incubation 60 minutes): 0%
- compound 2A (measured values, %) ([5]; incubation 120 minutes): 0%
- compound 2A (measured values, %) ([5]; incubation 360 minutes): 0%
- conversion to the lactone form (in words) ([6]; human sera, Test Example 1): quickly converted to the lactone form
- compound 2A (measured values, %) ([6]; incubation 0 minutes): 0%
- compound 2A (measured values, %) ([6]; incubation 30 minutes): 0%
- compound 2A (measured values, %) ([6]; incubation 60 minutes): 0%
- compound 2A (measured values, %) ([6]; incubation 120 minutes): 0%
- compound 2A (measured values, %) ([6]; incubation 360 minutes): 0%
